How the values were obtained:
[1] = test system: mice, transgenic for human apoAI; test: Evaluation of triglyceride and cholesterol levels in HuapoAI transgenic mice; type: in vivo; conditions: hu apoAI transgenic mice
Experimental: Five to six week old male mice, transgenic for human apoAI [C57B1/6-tgn(apoa1)1rub, Jackson Laboratory, Bar Harbor, Me.] were housed five per cage (10″×20″×8″ with aspen chip bedding) with food (Purina 5001) and water available at all times. After an acclimation period of 2 weeks, animals were individually identified by ear notches, weighed and assigned to groups based on body weight. Beginning the following morning, mice were dosed daily by oral gavage for 7 days using a 20 gauge, 1½″ curved disposable feeding needle. Treatments were test compounds (30 mg/kg), a positive control (fenofibrate, 100 mg/kg) or vehicle [1% carboxymethylcellulose (w/v)/0.25% Tween80 (w/v); 0.2 ml/mouse]. Prior to termination on day 7, mice were weighed and dosed. Three hours after dosing, animals were anesthetized by inhalation of isoflurane (2–4%) and blood obtained via cardiac puncture (0.7–1.0 ml). Whole blood was transferred to serum separator tubes (Vacutainer SST), chilled on ice and permitted to clot. Serum, was obtained after centrifugation at 4° C. and frozen until analysis for triglycerides, total cholesterol, compound levels and serum lipoprotein profiled by fast protein liquid, chromatography (FPLC) coupled to an inline detection system. After sacrifice by cervical dislocation, the liver, heart and epididymal fat pads were excised and weighed.
Glucose was measured colorimetrically by using commercially purchased reagents (Sigma #315-500). According to the manufacturers, the procedures were modified from published work (McGowan et al. Clin Chem, 20:470–5 (1974) and Keston, A. Specific colorimetric enzymatic analytical reagents for glucose. Abstract of papers 129th Meeting ACS, 31C (1956).); and depend on the release of a mole of hydrogen peroxide for each mole of analyte coupled with a color reaction first described by Trinder (Trinder, P. Ann Clin Biochem, 6:24 (1969)). The absorbance of the dye produced was linearly related to the analyte in the sample. The assays was further modified for use in a 96 well format. Standards (Sigma #339-11, Sigma #16-11, and Sigma #CC0534 for glucose, triglycerides and total cholesterol, respectively), quality control plasma (Sigma # A2034), and samples-(2 or 5 μl well) were measured in duplicate using 200 μl of reagent. An additional aliquot of sample, pipetted to a third well and diluted in 200 μl water, provided ai blank for each specimen. Plates were incubated at room temperature (18, 15, and 10 minutes for glucose, triglycerides and total cholesterol, respectively) on a plate shaker and absorbance read at 500 nm (glucose and total cholesterol) or 540 nm (triglycerides) on a plate reader. Sample absorbance was compared to a standard curve (100–800, 10–500, and 100–400 mg/dl for glucose, triglycerides and total cholesterol, respectively). Values for the quality control sample wee consistently within the expected range and the coefficient of variation for samples is below 10%. All samples from an experiment were assayed at the same time to minimize inter-assay variability.
Serum lipoproteins were separated and cholesterol was quantitated with an in-line detection system. Sample was applied to a Superose® 6 HR 10/30 size exclusion column (Amersham Pharmacia Biotech) and eluted with phosphate buffered saline-EDTA at 0.5 ml/min. Cholesterol reagent (Roche Diagnostics Chol/HP 704036) at 0.16 ml/min was mixed with the column effluent through a T-connection, and the mixture was passed through a 15 m×0.5 mm id knitted tubing reactor immersed in a 37° C. water bath. The colored product produced in the presence of cholesterol was monitored in the flow stream at 505 nm, and the analog voltage from the monitor was converted to a digital signal for collection and analysis. The change in voltage corresponding to change in cholesterol concentration was plotted against time, and the area under the curve corresponding to the elution of VLDL, LDL and HDL was calculated (Perkin Elmer Turbochrome software).

Structure (SMILES)	melting point [°C]	mean percent increase of HDLc ([1]; FPLC of pooled sera, 100 mg/kg oral daily for 7 days, versus vehicle) [%]	high-density lipoprotein cholesterol (HDLc) peak area ([1]; FPLC of pooled sera, 100 mg/kg oral daily for 7 days, vehicle 47 v-sec to 62 v-sec)	mean elevation of total serum cholesterol ([1]; 100 mg/kg oral gavage daily for 7 days, versus vehicle) [%]	average total serum cholesterol values ([1]; 100 mg/kg oral gavage daily for 7 days, vehicle about 140 to 180 mg/dl) [mg/dL]	mean reduction of triglycerides ([1]; serum, 100 mg/kg oral gavage daily for 7 days, versus vehicle) [%]	average triglycerides values ([1]; serum, 100 mg/kg oral gavage daily for 7 days, vehicle about 60 to 80 mg/dl) [mg/dL]
CO[C@@H](Cc1ccc(C#CCOc2ccc(-c3ccccc3)cc2)cc1)C(=O)O [Example 1, (2S)-3-{4-[3-(Biphenyl-4-yloxy)-prop-1-ynyl]-phenyl}-2-methoxy-propionic acid]	111 to 112	–	–	–	–	–	–
CC(C)OC(=O)C(C)(C)Oc1ccc(C(=O)c2ccc(Cl)cc2)cc1 [fenofibrate]	–	48	68–96 v-sec	41	190 to 280	37	33 to 58

Source: patent publication US7192982B2, “Modulators of peroxisome proliferator activated receptors” (Ligand Pharmaceuticals, Inc., priority 2001, dated 2007)
